Results: patent US20230219962A1, “PYRAZOLO[4,3-d]PYRIMIDINE DERIVATIVES AND METHODS OF USE THEREOF FOR THE TREATMENT OF CELLULAR PROLIFERATIVE DISORDERS” (Merck Sharp & Dohme LLC, priority 2020, published 2023)
pEC50: −log10 of the molar value.

Tests used:
hTLR7 = target: T1, hTLR7 (Homo sapiens, UniProt Q9NYK1); assay: Human TLR7 Reporter Assay; assay type: cell-based; conditions: HEK-Blue hTLR7 cells, 16 hours, normalized to CL097 (6 μM) and DMSO
T1 construct: host or cells: HEK-Blue hTLR7 cells (HEK293-derived, own knowledge)
T1 sequence (Q9NYK1 27-1049): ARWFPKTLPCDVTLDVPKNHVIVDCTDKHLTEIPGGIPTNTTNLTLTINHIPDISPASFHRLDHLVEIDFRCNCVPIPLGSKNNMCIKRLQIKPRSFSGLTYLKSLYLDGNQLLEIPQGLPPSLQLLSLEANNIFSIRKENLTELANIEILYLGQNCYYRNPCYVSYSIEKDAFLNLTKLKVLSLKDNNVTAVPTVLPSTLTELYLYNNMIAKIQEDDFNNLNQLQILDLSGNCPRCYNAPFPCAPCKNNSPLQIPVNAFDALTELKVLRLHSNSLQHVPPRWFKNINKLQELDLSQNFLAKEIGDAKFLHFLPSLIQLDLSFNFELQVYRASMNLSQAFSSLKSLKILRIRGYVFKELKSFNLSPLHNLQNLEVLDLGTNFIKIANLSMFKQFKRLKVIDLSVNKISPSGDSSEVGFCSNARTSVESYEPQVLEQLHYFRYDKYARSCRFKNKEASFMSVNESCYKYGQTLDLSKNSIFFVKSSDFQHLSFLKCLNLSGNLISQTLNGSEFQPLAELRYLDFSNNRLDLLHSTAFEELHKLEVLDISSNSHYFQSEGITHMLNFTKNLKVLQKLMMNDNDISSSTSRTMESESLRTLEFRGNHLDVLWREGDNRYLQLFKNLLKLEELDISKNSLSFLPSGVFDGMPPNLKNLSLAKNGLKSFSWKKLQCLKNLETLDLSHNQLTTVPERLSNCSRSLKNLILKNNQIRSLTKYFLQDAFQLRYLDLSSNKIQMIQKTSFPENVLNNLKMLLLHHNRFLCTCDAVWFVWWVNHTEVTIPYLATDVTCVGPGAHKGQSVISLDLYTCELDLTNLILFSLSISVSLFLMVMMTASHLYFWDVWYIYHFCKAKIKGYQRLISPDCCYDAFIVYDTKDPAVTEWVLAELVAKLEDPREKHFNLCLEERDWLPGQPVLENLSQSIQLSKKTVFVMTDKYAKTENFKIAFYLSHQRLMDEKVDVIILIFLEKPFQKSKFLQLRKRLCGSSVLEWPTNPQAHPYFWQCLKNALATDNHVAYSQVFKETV
Experimental: (§1) HEK-Blue™ hTLR7 cells (Invivogen, San Diego, Calif.) were maintained at 37° C./5% CO2/90% relative humidity in Dulbecco's Modified Eagle's Medium with 10% fetal bovine serum, 100 units/mL penicillin, 100 μg/mL streptomycin, 100 μg/mL normocin, 10 μg/mL blasticidin, and 100 μg/mL zeocin. HEK-Blue™ hTLR7 cells were maintained at 10-90% confluence and used before passage 20. For this assay, test compounds were dissolved in DMSO, and 10-point serial 3-fold dilution series in DMSO were prepared in Echo Qualified 384-well Polypropylene Microplates (Labcyte, San Jose, Calif.). Assay plates (384-well flat, clear bottom, black polystyrene TC-treated microtiter plates; Corning, Corning, N.Y.) were prepared by dispensing 150 nL of test compounds, high control (CL097; Invivogen, San Diego, Calif.), and low control (DMSO) by ECHO acoustic dispenser (Labcyte, San Jose Calif.) followed by addition of 5 μL of HEK-Blue™ Detection assay media (Invivogen, San Diego, Calif.). HEK-Blue™ hTLR7 cells in HEK-Blue™ Detection assay media (20,000 cells per well in 45 μL of media) were added to the assay plate and incubated for 16 hours at 37° C./5% CO2/90% relative humidity. For detection, assay plates were removed from the incubator, allowed to cool to ambient temperature, centrifuged at 200×g for 1 minutes, and read with an EnSpire Multimode Plate Reader (Perkin Elmer, Waltham, Mass.) for absorbance at 620 nm. Test compound effects were normalized to the window defined by the controls, CL097 (6 μM), and DMSO. Calculated % effects were fit using a 4-parameter algorithm, and EC50 was reported.

hTLR8 = target: T2, hTLR8 (Homo sapiens, UniProt Q9NR97); assay: Human TLR8 Reporter Assay; assay type: cell-based; conditions: HEK-Blue hTLR8 cells, 16 hours, normalized to tl8-506 (1 μM) and DMSO
T2 construct: host or cells: HEK-Blue hTLR8 cells (HEK293-derived, own knowledge)
T2 sequence (Q9NR97 27-1041): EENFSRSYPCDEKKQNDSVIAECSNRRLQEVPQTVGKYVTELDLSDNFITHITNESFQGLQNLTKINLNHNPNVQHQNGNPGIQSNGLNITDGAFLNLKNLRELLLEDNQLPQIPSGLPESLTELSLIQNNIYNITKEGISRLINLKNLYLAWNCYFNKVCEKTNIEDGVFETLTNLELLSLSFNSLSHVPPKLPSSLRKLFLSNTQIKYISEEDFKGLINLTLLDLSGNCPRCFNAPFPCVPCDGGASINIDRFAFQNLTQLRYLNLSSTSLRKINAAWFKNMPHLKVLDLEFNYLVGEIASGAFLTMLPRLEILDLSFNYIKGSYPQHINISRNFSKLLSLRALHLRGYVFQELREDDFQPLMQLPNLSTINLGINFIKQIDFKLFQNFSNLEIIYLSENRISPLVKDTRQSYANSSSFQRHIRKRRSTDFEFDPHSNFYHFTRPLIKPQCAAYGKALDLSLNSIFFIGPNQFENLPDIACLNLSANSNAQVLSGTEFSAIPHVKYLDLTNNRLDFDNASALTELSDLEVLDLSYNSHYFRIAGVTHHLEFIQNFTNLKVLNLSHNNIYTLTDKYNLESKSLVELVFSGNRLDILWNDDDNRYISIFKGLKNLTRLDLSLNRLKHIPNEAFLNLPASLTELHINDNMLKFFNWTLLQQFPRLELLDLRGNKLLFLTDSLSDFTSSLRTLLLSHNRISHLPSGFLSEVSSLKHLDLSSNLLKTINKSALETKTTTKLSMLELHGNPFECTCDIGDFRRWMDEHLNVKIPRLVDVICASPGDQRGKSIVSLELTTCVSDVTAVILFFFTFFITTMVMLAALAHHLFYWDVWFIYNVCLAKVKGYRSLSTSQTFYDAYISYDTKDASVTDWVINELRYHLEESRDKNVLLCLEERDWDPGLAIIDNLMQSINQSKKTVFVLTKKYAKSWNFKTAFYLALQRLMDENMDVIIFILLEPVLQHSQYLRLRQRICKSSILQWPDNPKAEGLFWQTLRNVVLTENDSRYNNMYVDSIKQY
Experimental: as §1, with “hTLR8” for “hTLR7”, “(tl8-506;” for “(CL097;”, “tl8-506 (1” for “CL097 (6”

SMILES | pEC50 (hTLR7) | pEC50 (hTLR8)
CCCCNc1nc(N)nc2cn(Cc3ccc(NCCCN)cn3)nc12 [Compound 144] | 6.77 | 5.42
CCCCNc1nc(N)nc2cn(Cc3ccc(OC)cc3)nc12 [Compound 38] | 6.58 | 5.77
CCCC(Nc1nc(N)nc2cn(Cc3c(OC)cccc3OC)nc12)C(F)(F)F (stereo not drawn) [Compound 124] | 6.58 | < 5.00
CCCCNc1nc(N)nc2cn(Cc3ccc(CC(C)N)cc3OC)nc12 (stereo not drawn) [Compound 178] | 6.53 | 6.34
CCCCNc1nc(N)nc2cn(Cc3ccc(C(N)CCN)cc3OC)nc12 (stereo not drawn) [Compound 228] | 5.63 | 5.15
CCC[C@H](CO)Nc1nc(N)nc2cn(Cc3ccccc3OC)nc12 [Compound 29] | 5.56 | 4.55
CCCCNc1nc(N)nc2cn(Cc3nc(N4CCNCC4)ccc3OC)nc12 [Compound 159] | 5.94 | 5.02
CCCNc1nc(N)nc2cn(Cc3c(OC)cccc3OC)nc12 [Compound 26] | 6.33 | 5.72
CCC[C@H](C)Nc1nc(N)nc2cn(Cc3c(OC)cc(CNC)cc3OC)nc12 [Compound 190] | 6.73 | 5.66
CCCCNc1nc(N)nc2cn(Cc3ccc(N4CCNCC4)cc3OC)nc12 [Compound 58] | 6.64 | 6.46
CCCCNc1nc(N)nc2cn(Cc3ccccc3)nc12 [Compound 2] | 5.96 | 5.38
CCCCNc1nc(N)nc2cn(Cc3cc(CN)ccc3OC)nc12 [Compound 146] | 6.20 | 6.20
CCCCNc1nc(N)nc2cn(Cc3c(OC)cc(CN(C)CCCN)cc3OC)nc12 [Compound 141] | 6.39 | 6.38
CCCCNc1nc(N)nc2cn(Cc3ccccc3OC(F)F)nc12 [Compound 179] | 6.65 | 5.72
C=CCN(C)Cc1nc(Cn2cc3nc(N)nc(NCCCC)c3n2)c(C)o1 [Compound 169] | 5.73 | 5.39
CCCCNc1nc(N)nc2cn(CCCCCCCCN)nc12 [Compound 13] | 5.52 | 4.58
CCCCNc1nc(N)nc2cn(Cc3cncnc3OC)nc12 [Compound 106] | 6.51 | 5.77

Further compounds by rising pEC50 (hTLR7), results first:

pEC50 (hTLR7) | pEC50 (hTLR8) | SMILES
5.07 | < 4.52 | COc1cccc(OC)c1Cn1cc2nc(N)nc(NCCCO)c2n1 [Compound 47]
5.64 | 5.20 | CCCCNc1nc(N)nc2cn(Cc3ccc(CN4CC(CNC)C4)cc3OC)nc12 [Compound 145]
5.71 | 5.11 | CCCCNc1nc(N)nc2cn(Cc3c(OC)cc(CNC(=O)CCN4C(=O)C=CC4=O)cc3OC)nc12 [Compound 96]
5.91 | < 4.52 | CCCCNc1nc(N)nc2cn(Cc3ccccc3C)nc12 [Compound 3]
6.02 | 5.58 | CCCCNc1nc(N)nc2cn(Cc3cc(N4CCNCC4)ccc3OC)nc12 [Compound 59]
6.03 | 5.47 | CCCCNc1nc(N)nc2cn(Cc3cncn3C3CC3)nc12 [Compound 182]
6.07 | < 4.52 | COc1cccc(OC)c1Cn1cc2nc(N)nc(NCCC(C)C)c2n1 [Compound 53]
6.20 | 5.86 | CCCCNc1nc(N)nc2cn(Cc3ncc(N4CCNCC4)cc3OC)nc12 [Compound 99]
6.43 | 5.08 | CCCCNc1nc(N)nc2cn(Cc3nc(Br)oc3C)nc12 [Compound 160]
6.43 | 6.23 | CCCCNc1nc(N)nc2cn(Cc3cc(CNC)ccc3OC)nc12 [Compound 148]
6.43 | < 5.00 | CCC(C)CNc1nc(N)nc2cn(Cc3c(OC)cccc3OC)nc12 (stereo not drawn) [Compound 56]
6.60 | 5.73 | CCCCNc1nc(N)nc2cn(Cc3ccc4c(c3)CCC4N)nc12 (stereo not drawn) [Compound 238]
6.95 | 5.65 | C=CC(=O)NC[C@H]1CC[C@H](C(=O)N2CCN(c3ccc(Cn4cc5nc(N)nc(NCCCC)c5n4)c(OC)c3)CC2)CC1 [Compound 120]
7.09 | 6.22 | CCCCNc1nc(N)nc2cn(Cc3nccnc3OC)nc12 [Compound 111]
7.29 | 5.62 | CCCCNc1nc(N)nc2cnn(Cc3c(OC)cc(CN4CCNCC4)cc3OC)c12 [Compound 63]
7.45 | 6.54 | CCCC(C)Nc1nc(N)nc2cn(Cc3c(OC)cccc3OC)nc12 (stereo not drawn) [Compound 91]
